Experiments:
[1] = biological target: T1, MERTK (Homo sapiens, UniProt Q12866); experiment: TR-FRET kinase activity assay, MERTK; format: biochemical; conditions: for IC50: TR-FRET activity assay, ATP at Km, 60 minutes, read-out: Mer IC50; for FLT3/Mer ratio (FLT3 IC50/Mer IC50): ratio calculated as FLT3 IC50/Mer IC50
T1 sequence (Q12866 21-999): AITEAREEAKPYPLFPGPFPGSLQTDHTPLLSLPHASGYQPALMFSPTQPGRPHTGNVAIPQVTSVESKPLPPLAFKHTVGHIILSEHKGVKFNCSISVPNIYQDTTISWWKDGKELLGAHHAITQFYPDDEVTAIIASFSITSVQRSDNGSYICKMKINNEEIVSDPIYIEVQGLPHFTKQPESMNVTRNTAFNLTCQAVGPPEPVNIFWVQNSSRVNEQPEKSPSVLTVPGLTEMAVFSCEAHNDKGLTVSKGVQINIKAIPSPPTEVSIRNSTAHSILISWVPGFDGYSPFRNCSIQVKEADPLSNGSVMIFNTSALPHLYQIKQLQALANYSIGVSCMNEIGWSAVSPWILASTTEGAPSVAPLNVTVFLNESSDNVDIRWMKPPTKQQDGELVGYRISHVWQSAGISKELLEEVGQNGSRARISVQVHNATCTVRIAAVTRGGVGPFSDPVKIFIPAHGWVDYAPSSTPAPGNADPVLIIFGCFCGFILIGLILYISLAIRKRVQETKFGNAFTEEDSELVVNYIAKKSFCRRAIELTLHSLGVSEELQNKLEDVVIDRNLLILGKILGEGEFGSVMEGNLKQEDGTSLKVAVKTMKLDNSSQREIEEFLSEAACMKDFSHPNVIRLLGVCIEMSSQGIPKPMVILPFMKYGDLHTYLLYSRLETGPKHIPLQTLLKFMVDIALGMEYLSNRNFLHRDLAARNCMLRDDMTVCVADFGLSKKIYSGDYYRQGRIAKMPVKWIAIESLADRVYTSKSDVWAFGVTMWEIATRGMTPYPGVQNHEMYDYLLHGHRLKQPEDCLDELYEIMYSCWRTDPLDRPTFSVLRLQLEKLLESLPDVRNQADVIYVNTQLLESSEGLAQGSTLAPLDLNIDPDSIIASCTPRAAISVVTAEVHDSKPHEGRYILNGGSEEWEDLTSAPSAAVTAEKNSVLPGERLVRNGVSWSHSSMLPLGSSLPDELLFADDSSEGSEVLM
In short: (§1)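 Inhibition is measured as loss of phospho-peptide formation: kinase, fluorescent tyrosine peptide and compound are combined, ATP is added at Km, and the reaction proceeds 60 min at RT in pH 7.5 HEPES buffer. An EDTA stop and Eu-labelled phospho-specific antibody allow TR-FRET detection for IC50 fitting.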

[2] = biological target: T2, FLT3 (Homo sapiens, UniProt P36888); experiment: TR-FRET kinase activity assay, FLT3; format: biochemical; conditions: ATP at Km, 60 minutes
T2 sequence (P36888 27-993): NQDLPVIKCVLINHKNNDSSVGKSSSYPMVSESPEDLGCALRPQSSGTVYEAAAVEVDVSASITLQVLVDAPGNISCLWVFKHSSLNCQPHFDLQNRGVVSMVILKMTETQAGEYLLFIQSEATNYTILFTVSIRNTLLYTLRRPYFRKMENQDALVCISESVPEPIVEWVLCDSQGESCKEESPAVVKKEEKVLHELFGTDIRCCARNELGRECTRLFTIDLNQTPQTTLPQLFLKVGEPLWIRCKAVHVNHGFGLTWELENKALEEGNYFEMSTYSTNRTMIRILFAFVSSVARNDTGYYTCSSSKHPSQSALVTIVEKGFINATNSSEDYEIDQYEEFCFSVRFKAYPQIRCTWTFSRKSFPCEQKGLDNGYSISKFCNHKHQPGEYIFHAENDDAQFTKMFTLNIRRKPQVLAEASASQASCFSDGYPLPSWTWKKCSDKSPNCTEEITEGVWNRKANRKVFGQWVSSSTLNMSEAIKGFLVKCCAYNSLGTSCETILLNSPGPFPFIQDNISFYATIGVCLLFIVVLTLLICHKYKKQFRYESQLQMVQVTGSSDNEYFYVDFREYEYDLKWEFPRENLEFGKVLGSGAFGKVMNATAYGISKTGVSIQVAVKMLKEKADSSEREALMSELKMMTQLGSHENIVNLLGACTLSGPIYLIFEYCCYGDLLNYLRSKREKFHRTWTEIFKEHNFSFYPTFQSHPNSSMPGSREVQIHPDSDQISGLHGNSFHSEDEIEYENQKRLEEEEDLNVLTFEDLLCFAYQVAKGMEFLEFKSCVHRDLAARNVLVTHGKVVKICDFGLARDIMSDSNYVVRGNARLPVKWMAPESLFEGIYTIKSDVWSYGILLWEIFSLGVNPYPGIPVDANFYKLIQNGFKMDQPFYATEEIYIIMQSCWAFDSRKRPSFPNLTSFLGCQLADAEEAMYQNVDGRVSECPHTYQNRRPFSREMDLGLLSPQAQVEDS
In short: as §1

Structure (SMILES) | IC50 [1] [µM] | FLT3/Mer ratio (FLT3 IC50/Mer IC50) [1] | IC50 [2] [µM]
COC[C@H](C)Nc1ncc2c(-c3ccnc(N4Cc5nc(C)sc5C4)c3)cc([C@H]3CC[C@H](O)CC3)n2n1 [Compound 479, (trans)-4-(2-(((S)-1-methoxypropan-2-yl)amino)-5-(2-(2-methyl-4H-pyrrolo[3,4-d]thiazol-5(6H)-yl)pyridin-4-yl)pyrrolo[2,1-f][1,2,4]triazin-7-yl)cyclohexanol] | ≤ 0.1 | +++ (“+++” represents a ratio of >100) | 1 to 10
COC[C@H](C)Nc1ncc2c(C#N)cc([C@H]3CC[C@H](O)CC3)n2n1 [Compound 481] | ≤ 0.1 | +++ (“+++” represents a ratio of >100) | 1 to 10
COC[C@H](C)Nc1ncc2c(C3=C[C@@H]4CC[C@H](C3)N4CC(F)(F)F)cc([C@H]3CC[C@H](O)CC3)n2n1 [Compound 485] | ≤ 0.1 | +++ (“+++” represents a ratio of >100) | 0.1 to 1
COC[C@H](C)Nc1ncc2c(-c3ccnc(Oc4cccnc4)c3)cc([C@H]3CC[C@H](O)CC3)n2n1 [Compound 490] | ≤ 0.1 | +++ (“+++” represents a ratio of >100) | 0.1 to 1
COC[C@H](C)Nc1ncc2c(-c3ccnc(N4CCN(S(=O)(=O)C5CC5)CC4)c3)cc([C@H]3CC[C@H](O)CC3)n2n1 [Compound 491] | ≤ 0.1 | +++ (“+++” represents a ratio of >100) | 0.1 to 1
COC[C@H](C)Nc1ncc2c(C3=C[C@H]4CC[C@@H](C3)N4CC(F)(F)F)cc([C@H]3CC[C@H](O)CC3)n2n1 [Compound 492] | ≤ 0.1 | +++ (“+++” represents a ratio of >100) | 1 to 10
COC[C@H](C)Nc1ncc2c(-c3ccnc(N4CCC5(COC5)C4)c3)cc([C@H]3CC[C@H](O)CC3)n2n1 [Compound 493] | ≤ 0.1 | +++ (“+++” represents a ratio of >100) | 0.1 to 1
COC[C@H](C)Nc1ncc2c(C3=C[C@H]4CC[C@@H](C3)N4C)cc([C@H]3CC[C@H](O)CC3)n2n1 [Compound 494] | ≤ 0.1 | +++ (“+++” represents a ratio of >100) | 1 to 10
COC[C@H](C)Nc1ncc2c(-c3cnn(C(C)(C)C(=O)C4CCc5sc(C)nc5C4)c3)cc([C@H]3CC[C@H](O)CC3)n2n1 (stereo partly drawn) [Compound 496] | ≤ 0.1 | +++ (“+++” represents a ratio of >100) | 1 to 10
COC[C@H](C)Nc1ncc2c(CC#N)cc([C@H]3CC[C@H](O)CC3)n2n1 [Compound 497] | ≤ 0.1 | +++ (“+++” represents a ratio of >100) | 1 to 10
COC[C@H](C)Nc1ncc2c(-c3cccc(C4CCc5nc(C)[nH]c5C4)c3)cc([C@H]3CC[C@H](O)CC3)n2n1 (stereo partly drawn) [Compound 498] | ≤ 0.1 | +++ (“+++” represents a ratio of >100) | 0.1 to 1
C[C@@H](CC(F)(F)F)Nc1ncc2c(C3=C[C@@H]4CC[C@H](C3)N4)cc([C@H]3CC[C@H](O)CC3)n2n1 [Compound 499] | ≤ 0.1 | +++ (“+++” represents a ratio of >100) | 0.1 to 1
COC[C@H](C)Nc1ncc2c(-c3cnn(C4COC4)c3)cc(-c3ccc(O)nc3)n2n1 [Compound 501] | ≤ 0.1 | ++ (“++” represents a ratio of between 10 and 100) | 1 to 10
COC[C@H](C)Nc1ncc2c(-c3cnn(C4COC4)c3)cc(-c3ccc(OC)cc3)n2n1 [Compound 502] | ≤ 0.1 | ++ (“++” represents a ratio of between 10 and 100) | 1 to 10
COC[C@H](C)Nc1ncc2c(-c3cnn(CC(C)(C)N4CCOCC4)c3)cc([C@H]3CC[C@H](O)CC3)n2n1 [Compound 507] | ≤ 0.1 | +++ (“+++” represents a ratio of >100) | 0.1 to 1

The remaining lines, values ahead:

IC50 [1] [µM] | FLT3/Mer ratio (FLT3 IC50/Mer IC50) [1] | IC50 [2] [µM] | Structure (SMILES)
≤ 0.1 | +++ (“+++” represents a ratio of >100) | 0.1 to 1 | COC[C@H](C)Nc1ncc2c(-c3ccnc(N4CCOC5(COC5)C4)c3)cc([C@H]3CC[C@H](O)CC3)n2n1 [Compound 480]
≤ 0.1 | +++ (“+++” represents a ratio of >100) | 1 to 10 | COC[C@H](C)Nc1ncc2c([C@H]3CC[C@@H](C(=O)N4CCOCC4)CC3)cc([C@H]3CC[C@H](O)CC3)n2n1 [Compound 484]
≤ 0.1 | +++ (“+++” represents a ratio of >100) | 1 to 10 | COC[C@H](C)Nc1ncc2c(-c3ccnc(N4CCN(C5COC5)CC4)c3)cc([C@H]3CC[C@H](O)CC3)n2n1 [Compound 486]
≤ 0.1 | +++ (“+++” represents a ratio of >100) | 1 to 10 | COC[C@H](C)Nc1ncc2c(-c3ccnc(N4CCN(S(=O)(=O)C(F)(F)F)CC4)c3)cc([C@H]3CC[C@H](O)CC3)n2n1 [Compound 487]
≤ 0.1 | +++ (“+++” represents a ratio of >100) | 0.1 to 1 | COC[C@H](C)Nc1ncc2c(-c3cnn(C(C)(C)C(=O)N4CCOCC4)c3)cc(C3CCc4[nH]ncc4C3)n2n1 (stereo partly drawn) [Compound 488]
≤ 0.1 | +++ (“+++” represents a ratio of >100) | ≤ 0.1 | C[C@@H](CC(F)F)Nc1ncc2c(-c3ccc(S(C)(=O)=O)nc3)cc([C@H]3CC[C@H](O)CC3)n2n1 [Compound 489]
≤ 0.1 | +++ (“+++” represents a ratio of >100) | 1 to 10 | COC[C@H](C)Nc1ncc2c(-c3cnn(C(C)(C)C(=O)N4Cc5nc(C)sc5C4)c3)cc([C@H]3CC[C@H](O)CC3)n2n1 [Compound 495]
≤ 0.1 | +++ (“+++” represents a ratio of >100) | 0.1 to 1 | COC[C@H](C)Nc1ncc2c(-c3ccnc(N4CCN(C(=O)C5COC5)CC4)c3)cc([C@H]3CC[C@H](O)CC3)n2n1 [Compound 500]
≤ 0.1 | +++ (“+++” represents a ratio of >100) | 1 to 10 | COC[C@H](C)Nc1ncc2c(-c3cnn(C4COC4)c3)cc(C3CCOCC3)n2n1 [Compound 503]
≤ 0.1 | +++ (“+++” represents a ratio of >100) | 0.1 to 1 | COC[C@H](C)Nc1ncc2c(-c3ccnc(N4CCN(C(=O)OC5COC5)CC4)c3)cc([C@H]3CC[C@H](O)CC3)n2n1 [Compound 504]
≤ 0.1 | +++ (“+++” represents a ratio of >100) | 1 to 10 | COC[C@H](C)Nc1ncc2c(-c3ccnc(F)c3)cc([C@H]3CC[C@H](O)CC3)n2n1 [Compound 505]
